Legend:
transplanted tumors = conditions: literature; cited from earlier work
sarcoma 180 = assay: Anti-tumor effect, sarcoma 180 subcutaneously transplanted in mouse; type: in vivo; conditions: oral, once daily for 7 days, tumor weighed on 10th day
Description: (§1) Cells of Ehrlich carcinoma or sarcoma 180, 5 × 10^6 in number, are subcutaneously transplanted in a mouse. Twenty-four hours after the transplantation and during a subsequent period, the compound of this invention is orally given to the test animal once every day for 7 consecutive days. On the 10th day from the transplantation, the weight of tumor in the test animal is measured to determine the percentage of inhibition achieved by the compound relative to the weight of tumor in the control group.

mice = assay: Acute toxicity, oral administration to mice, LD50 (method of Litchfield and Wilcoxon); type: in vivo
Text: (§2) The compound of this invention is orally administered to mice, and the mice are checked 3 days, one week, 2 weeks and 3 weeks later for motality in terms of LD50 calculated according to the method of Litchfield and Wilcoxon.

Ehrlich carcinoma = assay: Anti-tumor effect, Ehrlich carcinoma subcutaneously transplanted in mouse; type: in vivo; conditions: oral, once daily for 7 days, tumor weighed on 10th day
Description: as §1

[1] = continued administration, clinical; cited from earlier work
[2] = Acute toxicity, oral administration to mice, LD50 (method of Litchfield and Wilcoxon); type: in vivo; conditions: mouse, in vivo; for LD50 at 336 h: checked 2 weeks later; for LD50 at 504 h: checked 3 weeks later; for LD50 at 72 h: checked 3 days later; for LD50 at 168 h: checked one week later, read-out: LD50, 1 Week
Text: as §2

| Compound | inhibition of transplanted tumors (transplanted tumors) | Inhibition percentage, sarcoma 180 (tumor weight relative to control) (sarcoma 180; 30 mg/kg/day) | LD50, 2 Weeks (mice; checked 2 weeks later, 20160 min) | LD50, 1 Week (mice; checked one week later, 10080 min) | Inhibition percentage, Ehrlich carcinoma (tumor weight relative to control) (Ehrlich carcinoma; 30 mg/kg/day) | side effects [1] | Inhibition percentage, sarcoma 180 (tumor weight relative to control) (sarcoma 180; 90 mg/kg/day) | LD50 at 336 h [2] | LD50 at 504 h [2] | LD50 at 72 h [2] | LD50 at 168 h [2] | Inhibition percentage, Ehrlich carcinoma (tumor weight relative to control) (Ehrlich carcinoma; 90 mg/kg/day) |
| --- | --- | --- | --- | --- | --- | --- | --- | --- | --- | --- | --- | --- |
| O=c1[nH]cc(F)c(=O)[nH]1 [5-Fluorouracil, 5-fluorouracil, reference compound] | found to inhibit transplanted tumors | 64% | 145 mg/kg | 200 mg/kg | 61% | loss of appetite, stomatitis, nausea, vomiting and like gastrointestinal disorders, leukopenia, thrombocytopenia and like disorders in the blood, disorders in the liver and kidney | – | – | – | – | – | – |
| O=c1[nH]c(OCc2ccccc2)ncc1F [2-Benzyloxy-5-fluoropyrimidin-4-one, 2-benzyloxy-5-fluoropyrimidin-4-one] | – | – | – | – | – | – | 70% | 894 mg/kg | 894 mg/kg | 894 mg/kg | 894 mg/kg | 52% |
| CCCCOc1ncc(F)c(=O)[nH]1 [2-n-Butoxy-5-fluoropyrimidin-4-one, 2-n-butoxy-5-fluoropyrimidin-4-one] | – | – | – | – | – | – | 62% | 945 mg/kg | 945 mg/kg | 945 mg/kg | 945 mg/kg | 64% |
